# Data: ChEMBL document CHEMBL1125000, “Phosphorus-containing inhibitors of HMG-CoA reductase. 1. 4-[(2-arylethyl)hydroxyphosphinyl]-3-hydroxy-butanoic acids: a new class of cell-selective inhibitors of cholesterol biosynthesis” (J Med Chem, 1990)
# Assays:
# Rattus norvegicus [1] = assay: Inhibitory activity for de novo cholesterol synthesis from [14C]acetate was determined in rat after oral administration (in vivo); type: functional
# Rattus norvegicus [2] = organism: Rattus norvegicus; assay: Compound was tested for 50% inhibition of cholesterol synthesis in isolated rat hepatocytes.; type: functional; conditions: Hepatocyte, read-out: I50
# [3] = biological target: T1, 3-hydroxy-3-methylglutaryl-coenzyme A reductase (Rattus norvegicus, UniProt P51639); assay: Inhibition of rat microsomal HMG-CoA reductase activity by 50%; conditions: read-out: I50
# T1 sequence (P51639 whole entry): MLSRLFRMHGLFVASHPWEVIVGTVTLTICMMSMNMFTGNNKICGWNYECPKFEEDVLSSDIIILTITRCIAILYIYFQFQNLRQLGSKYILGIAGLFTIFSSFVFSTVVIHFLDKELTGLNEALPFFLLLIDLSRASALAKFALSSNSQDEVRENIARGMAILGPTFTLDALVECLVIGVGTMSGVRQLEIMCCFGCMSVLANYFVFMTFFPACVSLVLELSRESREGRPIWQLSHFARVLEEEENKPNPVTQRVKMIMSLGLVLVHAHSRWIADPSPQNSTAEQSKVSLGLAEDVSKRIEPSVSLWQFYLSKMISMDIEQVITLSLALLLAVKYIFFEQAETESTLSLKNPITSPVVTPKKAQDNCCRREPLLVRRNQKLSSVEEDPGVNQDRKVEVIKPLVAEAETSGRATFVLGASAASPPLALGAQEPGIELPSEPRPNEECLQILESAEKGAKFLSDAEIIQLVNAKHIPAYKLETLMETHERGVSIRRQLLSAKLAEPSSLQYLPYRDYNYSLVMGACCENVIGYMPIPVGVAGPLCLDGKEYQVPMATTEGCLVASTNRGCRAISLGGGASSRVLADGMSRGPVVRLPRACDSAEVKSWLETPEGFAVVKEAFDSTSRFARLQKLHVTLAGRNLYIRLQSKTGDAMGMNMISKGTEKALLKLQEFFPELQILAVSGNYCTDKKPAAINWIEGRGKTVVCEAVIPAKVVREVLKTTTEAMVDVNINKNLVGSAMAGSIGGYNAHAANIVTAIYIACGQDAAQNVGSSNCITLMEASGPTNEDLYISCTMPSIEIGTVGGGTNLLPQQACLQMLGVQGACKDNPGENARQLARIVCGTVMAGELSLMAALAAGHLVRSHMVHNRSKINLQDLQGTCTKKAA
# Rattus norvegicus [4] = assay: Inhibitory activity for de novo cholesterol synthesis from [14C]acetate was determined in rat after intravenous administration (in vivo); type: functional
# Homo sapiens = organism: Homo sapiens; assay: Compound was tested for 50% inhibition of cholesterol synthesis in human skin fibroblasts.; type: functional; conditions: read-out: I50
Structure (SMILES),IC50 [3] [nM],ED50 (Rattus norvegicus [1]) [mg/kg],IC50 (Rattus norvegicus [2]) [nM],ED50 (Rattus norvegicus [4]) [mg/kg],IC50 (Homo sapiens) [nM]
CC[C@H](C)C(=O)O[C@H]1C[C@H](O)C=C2C=C[C@H](C)[C@H](CC[C@@H](O)C[C@@H](O)CC(=O)[O-])[C@H]21.[Na+] [PRAVASTATIN SODIUM],26,0.75,100,0.053,3100
O=C(O)C[C@H](O)CP(=O)(O)/C=C/C1=C(c2ccc(F)cc2)c2ccccc2C12CCCC2,2.1,–,–,–,–
Cc1cc(-c2ccc(F)c(C)c2)c(CCP(=O)(O)C[C@@H](O)CC(=O)O)c(C(C)C)c1,3.8,–,–,–,–
O=C(O)C[C@H](O)CP(=O)(O)C#CC1=C(c2ccc(F)cc2)c2ccccc2C12CCCC2,2.8,0.38,245,0.027,11000
CC[C@H](C)C(=O)O[C@H]1C[C@@H](C)C=C2C=C[C@H](C)[C@H](CC[C@@H](O)C[C@@H](O)CC(=O)[O-])[C@H]21.[Na+],–,0.4,146,0.033,19
CC(C)n1c(CCP(=O)(O)C[C@@H](O)CC(=O)O)c(-c2ccc(F)cc2)c2ccccc21,24,–,–,–,–
CC(C)c1c(CCP(=O)(O)C[C@@H](O)CC(=O)O)n(-c2ccc(F)cc2)c2ccccc12,120,–,–,–,–
CCc1c(C#CP(=O)(O)C[C@@H](O)CC(=O)O)n(-c2ccc(F)cc2)c2ccccc12,87.5,–,–,–,–
Cc1cc(-c2ccc(F)c(C)c2)c(C#CP(=O)(O)C[C@@H](O)CC(=O)O)c(C(C)C)c1,8.5,–,–,–,–
CC(C)c1c(C#CP(=O)(O)C[C@@H](O)CC(=O)O)n(-c2ccc(F)cc2)c2ccccc12,2.2,1.1,93,0.09,8900
Cc1cc(-c2ccc(F)c(C)c2)c(COP(=O)(O)C[C@@H](O)CC(=O)O)c(C(C)C)c1,1.2,–,–,–,–
O=C(O)C[C@H](O)CP(=O)(O)C#CC1=C(c2ccc(F)cc2)c2ccccc2C12CCCCC2,3,–,–,–,–
CC(C)n1c(/C=C/P(=O)(O)C[C@@H](O)CC(=O)O)c(-c2ccc(F)cc2)c2ccccc21,26,–,–,–,–
CC(C)n1c(C#CP(=O)(O)C[C@@H](O)CC(=O)O)c(-c2ccc(F)cc2)c2ccccc21,6,–,–,–,–
CC(C)c1c(/C=C/P(=O)(O)C[C@@H](O)CC(=O)O)n(-c2ccc(F)cc2)c2ccccc12,1.9,–,–,–,–
COP(=O)(C[C@@H](O)CC(=O)O)NCc1c(C)cc(C)cc1-c1ccc(F)c(C)c1 (stereo partly specified),70500,–,–,–,–
O=C(O)C[C@H](O)CP(=O)(O)C#CC1=C(c2ccc(F)cc2)c2ccccc2C12CC2,70,–,–,–,–
CCc1c(CCP(=O)(O)C[C@@H](O)CC(=O)O)n(-c2ccc(F)cc2)c2ccccc12,13,–,–,–,–

# Continued, in another order:
IC50 [3] [nM],Structure (SMILES),ED50 (Rattus norvegicus [1]) [mg/kg],IC50 (Rattus norvegicus [2]) [nM],ED50 (Rattus norvegicus [4]) [mg/kg],IC50 (Homo sapiens) [nM]
15,Cc1cc(C)c(CCP(=O)(O)C[C@@H](O)CC(=O)O)c(-c2ccc(F)c(C)c2)c1,6.7,85,0.05,64000
3000,Cc1cc(C)c(/C=C\P(=O)(O)C[C@@H](O)CC(=O)O)c(-c2ccc(F)c(C)c2)c1,–,–,–,–
21600,COP(=O)(C[C@@H](O)CC(=O)O)OCc1c(C)cc(C)cc1-c1ccc(F)c(C)c1 (stereo partly specified),–,–,–,–
4600,COP(=O)(CCc1c(C)cc(C)cc1-c1ccc(F)c(C)c1)C[C@@H](O)CC(=O)O (stereo partly specified),–,–,–,–
297,Cc1cc(C)c(C#CP(=O)(O)C[C@@H](O)CC(=O)O)c(-c2ccc(F)c(C)c2)c1,–,–,–,–
150000,Cc1cc(C)c(CCCP(=O)(O)C[C@@H](O)CC(=O)O)c(-c2ccc(F)c(C)c2)c1,–,–,–,–
6.7,Cc1cc(C)c(/C=C/P(=O)(O)C[C@@H](O)CC(=O)O)c(-c2ccc(F)c(C)c2)c1,–,–,–,–
162,Cc1cc(C)c(COP(=O)(O)C[C@@H](O)CC(=O)O)c(-c2ccc(F)c(C)c2)c1,> 10,260,0.14,327000
89300,Cc1cc(C)c(CP(=O)(O)C[C@@H](O)CC(=O)O)c(-c2ccc(F)c(C)c2)c1,–,–,–,–
4500,Cc1cc(C)c(OCP(=O)(O)C[C@@H](O)CC(=O)O)c(-c2ccc(F)c(C)c2)c1,–,–,–,–
